Data: patent US20240246920A1, “TRIAZOLE DERIVATIVES WITH ANTIFUNGAL ACTIVITY” (King's College London, priority 2020, published 2024)
In brackets after ≈: the same amount, converted by molar mass. Like-named read-outs stand apart in the source and are kept apart here.

What was measured:
C. albicans 3881 = assay: Candida albicans panel MIC; format: cell-based; details: Table 6, Candida albicans panel
Method: (§1) The minimum inhibitory concentration of test compounds were determined in a panel of Candida species (see Table 4 below), using the a serial dilution method in 96-well plates using the following protocol.
(§2) Starter cultures of fungal strains to be tested were grown in 3 mL of RPMI 2% glucose media incubated at 37° C. with shaking at 200 rpm overnight. The culture media used was 900 mL H2O; 10.4 g RPMI 1640 (with L-glutamine and a pH indicator but without bicarbonate); 34.5 g MOPS and 18 g glucose. The pH of the media was adjusted to 7.0 with 1 M sodium hydroxide.
(§3) Solutions of the compound to be tested were prepared by dissolving the compound in DMSO and subsequently into media to the desired concentrations. 200 μL of compound solution was then added to the wells of the 96-well plate using a serial dilution method row-by row of the plate to give a compound concentration gradient across the plate of from 128 μg/mL to 0.25 μg/mL. The last two rows of each plate were control rows containing the culture media alone and the media plus fungi.
(§4) The fungi starter cultures were diluted 1:10 in water in cuvettes. This was then further diluted to an optical density (OD600) of 0.01 in media. 100 μL of the fungi was added to each well giving a starting concentration of fungus of 0.5-5×10^5/mL. One species of fungus was used on each plate. The plates were then held at 37° C. for 24 hours.
(§5) A plate reader was used to measure growth in each well at OD530 nm and the MIC was determined for each test compound. The MIC is defined as the lowest concentration giving rise to inhibition of ≥50% of that of the drug-free control well containing the fungus and media.
(§6) The compounds shown in Table 6 were tested against a further panel of Candida albicans.

C. albicans 3645 = assay: Candida albicans panel MIC; format: cell-based; details: Table 6, Candida albicans panel
Method: as §1, §2, §3, §4, §5, §6

C. albicans 8112 = assay: Candida albicans panel MIC; format: cell-based; details: Table 6, Candida albicans panel
Method: as §1, §2, §3, §4, §5, §6

C. albicans 3882 = assay: Candida albicans panel MIC; format: cell-based; details: Table 6, Candida albicans panel
Method: as §1, §2, §3, §4, §5, §6

C. albicans 3990 = assay: Candida albicans panel MIC; format: cell-based; details: Table 6, Candida albicans panel
Method: as §1, §2, §3, §4, §5, §6

C. albicans 3880 = assay: Candida albicans panel MIC; format: cell-based; details: Table 6, Candida albicans panel
Method: as §1, §2, §3, §4, §5, §6

C. albicans 3363 = assay: Candida albicans panel MIC; format: cell-based; details: Table 6, Candida albicans panel
Method: as §1, §2, §3, §4, §5, §6

C. albicans NCPF3281 = assay: Candida panel MIC, serial dilution in 96-well plates; format: cell-based, Candida albicans; details: NCPF3281, read-out: MIC C. albicans NCPF3281
Method: as §1, §2, §3, §4, §5

C. parapsilosis NCPF3209 = assay: microbe, parasite or virus in culture; format: cell-based, Candida parapsilosis; details: Lodderomyces parapsilosis
Method: as §1, §2
(§7) Solutions of the compound to be tested were prepared by dissolving the compound in DMSO and subsequently into media to the desired concentrations. […] The last two rows of each plate were control rows containing the culture media alone and the media plus fungi.
as §4, §5

C. krusei NCPF3876 = assay: microbe, parasite or virus in culture; format: cell-based, Candida krusei; details: Pichia kudriavzevii
Method: as §1, §2, §7, §4, §5

C. glabrata NCPF8018 = assay: Candida panel MIC, serial dilution in 96-well plates; format: cell-based, Candida glabrata; details: Nakaseomyces glabratus
Method: as §1, §2, §7, §4, §5

Candida auris TDG2512 = assay: as above; format: cell-based; details: Candidozyma auris, TDG2512; Table 4, extended panel; 24 hours, ≥50% inhibition; read-out: MIC Candida auris TDG2512
Method: as §1, §2, §3, §4, §5

C. tropicalis NCPF8760 = assay: as above; format: cell-based
Method: as §1, §2, §3, §4, §5

Candida auris TDG1102 = assay: as above; format: cell-based; details: Candidozyma auris, TDG1102; Table 4, extended panel; 24 hours, ≥50% inhibition; read-out: MIC Candida auris TDG1102
Method: as §1, §2, §3, §4, §5

Candida auris TDG2506 = assay: microbe, parasite or virus in culture; format: cell-based; details: Candidozyma auris, TDG2506; Table 4, extended panel; 24 hours, ≥50% inhibition; read-out: MIC Candida auris TDG2506
Method: as §1, §2, §7, §4, §5
(§8) The Candida auris strains shown in Table 7 were either taken from the National Collection of Pathogenic Fungi (NCPF) or collected as part of ongoing surveillance studies. The strains were characterised as follows.

Candida auris TDG2211 = assay: microbe, parasite or virus in culture; format: cell-based; details: Candidozyma auris, TDG2211; Table 4, extended panel; 24 hours, ≥50% inhibition; read-out: MIC Candida auris TDG2211
Method: as §1, §2, §7, §4, §5, §8

C. auris 8971 = assay: Candida panel MIC, serial dilution in 96-well plates; format: cell-based, Candida auris; details: Candidozyma auris, 8971; Table 4, extended panel; 24 hours, ≥50% inhibition; read-out: MIC C. auris 8971
Method: as §1, §2, §7, §4, §5, §8

C. auris 8984 = assay: as above; format: cell-based, Candida auris; details: Candidozyma auris, 8984; Table 4, extended panel; 24 hours, ≥50% inhibition; read-out: MIC C. auris 8984
Method: as §1, §2, §7, §4, §5, §8

C. auris 8977 = assay: as above; format: cell-based, Candida auris; details: Candidozyma auris, 8977; Table 4, extended panel; 24 hours, ≥50% inhibition; read-out: MIC C. auris 8977
Method: as §1, §2, §7, §4, §5, §8

C. auris TDG1912 = assay: as above; format: cell-based; details: Candidozyma auris, TDG1912; Table 4; 24 hours, ≥50% inhibition; read-out: MIC C. auris TDG1912
Method: as §1, §2, §3, §4, §5

[1] = Candida albicans, Table 4, common panel, 24 hours, ≥50% inhibition
[2] = Table 6, Candida albicans panel
[3] = NCPF3209, read-out: MIC C. Parapsilosis NCPF3209
[4] = NCPF3209, Table 4, common panel, 24 hours, ≥50% inhibition, read-out: MIC C. parapsilosis NCPF3209
[5] = NCPF3876, read-out: MIC C. Krusei NCPF3876
[6] = NCPF3876, Table 4, common panel, 24 hours, ≥50% inhibition, read-out: MIC C. krusei NCPF3876
[7] = NCPF8018, read-out: MIC C. Glabrata NCPF8018
[8] = NCPF8018, Table 4, common panel, 24 hours, ≥50% inhibition, read-out: MIC C. glabrata NCPF8018
[9] = NCPF8760, Table 4, common panel, 24 hours, ≥50% inhibition, read-out: MIC C. tropicalis NCPF8760
[10] = NCPF8760, read-out: MIC C. Tropicalis NCPF8760

| Structure (SMILES) | MIC (C. albicans 3881) | MIC (C. albicans 3645) | MIC (C. albicans 8112) | MIC (C. albicans 3882) | MIC (C. albicans 3990) | MIC (C. albicans 3880) | MIC (C. albicans 3363) | MIC (C. albicans NCPF3281; [1]) | MIC (C. albicans NCPF3281; [2]) | MIC (C. parapsilosis NCPF3209; [4]) | MIC (C. krusei NCPF3876; [6]) | MIC (C. glabrata NCPF8018; [8]) | MIC (Candida auris TDG2512) | MIC (C. tropicalis NCPF8760; [9]) | MIC (Candida auris TDG1102) | MIC (Candida auris TDG2506) | MIC (Candida auris TDG2211) | MIC (C. auris 8971) | MIC (C. auris 8984) | MIC (C. auris 8977) | further results |
| --- | --- | --- | --- | --- | --- | --- | --- | --- | --- | --- | --- | --- | --- | --- | --- | --- | --- | --- | --- | --- | --- |
| OC(CN1CCC(Nc2ccc(OCc3ccccc3)cc2)CC1)(Cn1cncn1)c1ccc(F)cc1F (centres unmarked) [Example 90] | 0.0078 to 0.0313 µg/mL (≈ 0.015 to 0.0602 µM) | 0.00391 µg/mL (≈ 0.00753 µM) | 0.00391 µg/mL (≈ 0.00753 µM) | 0.00391 µg/mL (≈ 0.00753 µM) | 0.0039 µg/mL (≈ 0.00751 µM) | 0.00391 µg/mL (≈ 0.00753 µM) | 0.008 to 0.03 µg/mL (≈ 0.0154 to 0.0577 µM) | 0.00391 µg/mL (≈ 0.00753 µM) | 0.00391 µg/mL (≈ 0.00753 µM) | 0.00391 µg/mL (≈ 0.00753 µM) | 0.0313 µg/mL (≈ 0.0602 µM) | 0.0625 µg/mL (≈ 0.12 µM) | 0.00391 µg/mL (≈ 0.00753 µM) | 0.0625 µg/mL (≈ 0.12 µM) | 0.0156 µg/mL (≈ 0.0301 µM) | 0.003 µg/mL (≈ 0.00577 µM) | 0.003 µg/mL (≈ 0.00577 µM) | 0.003 µg/mL (≈ 0.00577 µM) | 0.003 µg/mL (≈ 0.00577 µM) | 0.00781 µg/mL (≈ 0.015 µM) | MIC (C. parapsilosis NCPF3209; [3]): 0.00391 µg/mL (≈ 0.00753 µM); MIC (C. krusei NCPF3876; [5]): 0.0313 µg/mL (≈ 0.0602 µM); MIC (C. glabrata NCPF8018; [7]): 0.0625 µg/mL (≈ 0.12 µM); MIC (C. tropicalis NCPF8760; [10]): 0.0625 µg/mL (≈ 0.12 µM) |
| OC(CN1CCC2(CCC(Nc3ccc(Cc4ccccc4)cc3)CC2)C1)(Cn1cncn1)c1ccc(F)cc1F (centres unmarked) [Example 13, 1-(8-((4-benzylphenyl)amino)-2-azaspiro[4.5]decan-2-yl)-2-(2,4-difluorophenyl)-3-(1H-1,2,4-triazol-1-yl)propan-2-ol] | 0.25 µg/mL (≈ 0.448 µM) | 0.00781 µg/mL (≈ 0.014 µM) | 0.00049 to 0.00391 µg/mL (≈ 0.000879 to 0.00701 µM) | 0.0313 to 2 µg/mL (≈ 0.0561 to 3.59 µM) | 0.0625 µg/mL (≈ 0.112 µM) | 0.25 µg/mL (≈ 0.448 µM) | 0.125 µg/mL (≈ 0.224 µM) | ≤ 0.125 µg/mL | ≤ 0.00098 µg/mL | ≤ 0.125 µg/mL | ≤ 0.125 µg/mL | 0.25 µg/mL (≈ 0.448 µM) | ≤ 0.125 µg/mL | ≤ 0.125 µg/mL | ≤ 0.125 µg/mL | ≤ 0.125 µg/mL | ≤ 0.125 µg/mL | ≤ 0.125 µg/mL | ≤ 0.125 µg/mL | ≤ 0.125 µg/mL | MIC (C. auris TDG1912): 0.25 µg/mL (≈ 0.448 µM) |
| OC(CN1CCC(N2CCC(Nc3ccc(Cc4ccccc4)cc3)CC2)CC1)(Cn1cncn1)c1ccc(F)cc1F (centres unmarked) [Example 12, 1-(4-((4-benzylphenyl)amino)-[1,4′-bipiperidin]-1′-yl)-2-(2,4-difluorophenyl)-3-(1H-1,2,4-triazol-1-yl)propan-2-ol] | 0.0625 µg/mL (≈ 0.107 µM) | 0.00391 µg/mL (≈ 0.00666 µM) | 0.00391 µg/mL (≈ 0.00666 µM) | 0.0625 µg/mL (≈ 0.107 µM) | 0.0313 µg/mL (≈ 0.0533 µM) | 0.0313 µg/mL (≈ 0.0533 µM) | 0.0625 µg/mL (≈ 0.107 µM) | ≤ 0.125 µg/mL | 0.002 to 0.004 µg/mL (≈ 0.00341 to 0.00682 µM) | ≤ 0.125 µg/mL | ≤ 0.125 µg/mL | 0.125 µg/mL (≈ 0.213 µM) | ≤ 0.125 µg/mL | ≤ 0.125 µg/mL | ≤ 0.125 µg/mL | ≤ 0.125 µg/mL | ≤ 0.125 µg/mL | ≤ 0.125 µg/mL | ≤ 0.125 µg/mL | ≤ 0.125 µg/mL | MIC (C. parapsilosis NCPF3209; [3]): ≤ 0.125 µg/mL; MIC (C. krusei NCPF3876; [5]): ≤ 0.125 µg/mL; MIC (C. glabrata NCPF8018; [7]): 0.25 µg/mL (≈ 0.426 µM); MIC (C. auris TDG1912): 0.125 µg/mL (≈ 0.213 µM); MIC (C. tropicalis NCPF8760; [10]): ≤ 0.125 µg/mL |
| OC(CN1CCCN(c2ncc(F)cn2)CC1)(Cn1cncn1)c1ccc(F)cc1F (centres unmarked) [Example 8, 2-(2,4-Difluorophenyl)-1-(4-(5-fluoropyrimidin-2-yl)-1,4-diazepan-1-yl)-3-(1H-1,2,4-triazol-1-yl)propan-2-ol] |  |  |  |  |  |  |  | < 0.015 µg/mL |  | 0.015 µg/mL (≈ 0.0346 µM) | 0.5 µg/mL (≈ 1.15 µM) | 0.25 µg/mL (≈ 0.577 µM) | 2 µg/mL (≈ 4.61 µM) | 1 µg/mL (≈ 2.31 µM) | 1 µg/mL (≈ 2.31 µM) | 8 µg/mL (≈ 18.5 µM) | 1 µg/mL (≈ 2.31 µM) | 0.12 µg/mL (≈ 0.277 µM) | 0.12 µg/mL (≈ 0.277 µM) | 0.12 µg/mL (≈ 0.277 µM) | MIC (C. auris TDG1912): 2 µg/mL (≈ 4.61 µM) |
